Reference: patent EP0497314A1, “Use of azapirones in attention deficit hyperactivity disorder” (Bristol-Myers Squibb Company, priority 1991, dated 1992)
Structures can show the parent of a compound that is named as a salt. Marks after values point to notes of the source that are not given here.

Legend:
rabbit cortex = assay: Quantitative EEG, rabbit cortex, intravenous administration; format: in vivo, rabbits; details: for group percent change in electrical energy from pre-drug control, Δ band / mean change ± S.E. in electrical energy from pre-drug control, Δ band / group percent change in electrical energy from pre-drug control, α band / mean change ± S.E. in electrical energy from pre-drug control, α band / group percent change in electrical energy from pre-drug control, β band / mean change ± S.E. in electrical energy from pre-drug control, β band / group percent change in electrical energy from pre-drug control, γ band / mean change ± S.E. in electrical energy from pre-drug control, γ band / group percent change in electrical energy from pre-drug control, θ band / mean change ± S.E. in electrical energy from pre-drug control, θ band: rabbit cortex; for group percent change in electrical energy from pre-drug control, Δ band / mean change ± S.E. in electrical energy from pre-drug control, Δ band: Δ = 0.5-3.5 Hz; for group percent change in electrical energy from pre-drug control, α band / mean change ± S.E. in electrical energy from pre-drug control, α band: α= 7-13 Hz; for group percent change in electrical energy from pre-drug control, β band / mean change ± S.E. in electrical energy from pre-drug control, β band: β= 13-25 Hz; for group percent change in electrical energy from pre-drug control, γ band / mean change ± S.E. in electrical energy from pre-drug control, γ band: γ= 25-40 Hz; for group percent change in electrical energy from pre-drug control, θ band / mean change ± S.E. in electrical energy from pre-drug control, θ band: θ= 3.5-7.0 Hz
Outline: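 Restrained rabbits with cortical leads had EEG split into Δ, ϑ, α, β and γ bands and integrated over 1 h from the moment of i.v. injection, in saline, dosed as free base. Counts were compared with each animal's own pretreatment control by paired t-test (p≦0.05). Doses were reduced geometrically to a no-effect level.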

[1] = test system: fronto-occipital cortex of the cat; assay: Quantitative EEG, fronto-occipital cat cortex, subcutaneous administration; format: in vivo, cats; details: for group percent change in electrical energy from pre-drug control, Δ band / mean change ± S.E. in electrical energy from pre-drug control, Δ band / group percent change in electrical energy from pre-drug control, α band / mean change ± S.E. in electrical energy from pre-drug control, α band / group percent change in electrical energy from pre-drug control, β band / mean change ± S.E. in electrical energy from pre-drug control, β band / group percent change in electrical energy from pre-drug control, γ band / mean change ± S.E. in electrical energy from pre-drug control, γ band / group percent change in electrical energy from pre-drug control, θ band / mean change ± S.E. in electrical energy from pre-drug control, θ band: fronto-occipital cat cortex; for group percent change in electrical energy from pre-drug control, Δ band / mean change ± S.E. in electrical energy from pre-drug control, Δ band: Δ = 0.05-35 Hz; for group percent change in electrical energy from pre-drug control, α band / mean change ± S.E. in electrical energy from pre-drug control, α band: α= 7-13 Hz; for group percent change in electrical energy from pre-drug control, β band / mean change ± S.E. in electrical energy from pre-drug control, β band: β= 13-25 Hz; for group percent change in electrical energy from pre-drug control, γ band / mean change ± S.E. in electrical energy from pre-drug control, γ band: γ= 25-40 Hz; for group percent change in electrical energy from pre-drug control, θ band / mean change ± S.E. in electrical energy from pre-drug control, θ band: θ= 3.5-7.0 Hz
Outline: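 Adult female mongrel cats (n=6 per group) with implanted electrodes were recorded while held in restraining bags, with EEG filtered into Δ, ϑ, α, β and γ bands and integrated as energy counts. Drugs were given subcutaneously in saline, with doses calculated as free base, and recording started 30 min post-injection. Changes from each animal's pre-treatment control were tested by paired Student t-test (P≦0.05).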

## COC(=O)C(c1ccccc1)C1CCCCN1 (stereo not drawn) [Methylphenidate HCl, methylphenidate]
Rabbit cortex; Oryctolagus cuniculus, iv, read-out: the minimum dose required to produce the EEG profile characteristic of that particular drug
  minimal effective dose: 0.125 mg/kg
Rabbit cortex; rabbit cortex EEG, i.v.
  relative potency by comparing minimal doses required to elicit EEG profiles: approximately four times more potent than buspirone
Rabbit cortex; rabbit cortex EEG, dose of free base
  the no-effect dose: 0.0625† mg/kg, i.v.
Rabbit cortex; 0.0625 mg/kg free base i.v.
  group percent change in electrical energy from pre-drug control, Δ band: +3%
  mean change ± S.E. in electrical energy from pre-drug control, Δ band: +7 ± 19 instrument counts
  group percent change in electrical energy from pre-drug control, α band: +6%
  mean change ± S.E. in electrical energy from pre-drug control, α band: +8 ± 10 instrument counts
  group percent change in electrical energy from pre-drug control, β band: +4%
  mean change ± S.E. in electrical energy from pre-drug control, β band: +4 ± 6 instrument counts
  group percent change in electrical energy from pre-drug control, γ band: -1%
  mean change ± S.E. in electrical energy from pre-drug control, γ band: -1 ± 2 instrument counts
  group percent change in electrical energy from pre-drug control, θ band: +6%
  mean change ± S.E. in electrical energy from pre-drug control, θ band: +3 ± 9 instrument counts
Rabbit cortex; 0.125 mg/kg free base i.v.
  group percent change in electrical energy from pre-drug control, Δ band: -36%
  mean change ± S.E. in electrical energy from pre-drug control, Δ band: -120 ± 36 instrument counts
  group percent change in electrical energy from pre-drug control, α band: -23%
  mean change ± S.E. in electrical energy from pre-drug control, α band: -47 ± 16 instrument counts
  group percent change in electrical energy from pre-drug control, β band: -22%
  mean change ± S.E. in electrical energy from pre-drug control, β band: -35 ± 6 instrument counts
  group percent change in electrical energy from pre-drug control, γ band: -7%
  mean change ± S.E. in electrical energy from pre-drug control, γ band: -9 ± 2 instrument counts
  group percent change in electrical energy from pre-drug control, θ band: -24%
  mean change ± S.E. in electrical energy from pre-drug control, θ band: -60 ± 16 instrument counts
[1]; Felis catus, sc, read-out: the minimum dose required to produce the EEG profile characteristic of that particular drug
  minimal effective dose: 0.25 mg/kg
[1]; cat cortex EEG, s.c.
  relative potency by comparing minimal doses required to elicit EEG profiles: equal potency
[1]; fronto-occipital cat cortex EEG, dose of free base
  the no-effect dose: 0.125† mg/kg, s.c.
[1]; 0.125 mg/kg free base s.c.
  group percent change in electrical energy from pre-drug control, Δ band: -22%
  mean change ± S.E. in electrical energy from pre-drug control, Δ band: -44 ± 18 instrument counts
  group percent change in electrical energy from pre-drug control, α band: -18%
  mean change ± S.E. in electrical energy from pre-drug control, α band: -24 ± 10 instrument counts
  group percent change in electrical energy from pre-drug control, β band: -2%
  mean change ± S.E. in electrical energy from pre-drug control, β band: -3 ± 5 instrument counts
  group percent change in electrical energy from pre-drug control, γ band: +7%
  mean change ± S.E. in electrical energy from pre-drug control, γ band: +6 ± 2 instrument counts
  group percent change in electrical energy from pre-drug control, θ band: -20%
  mean change ± S.E. in electrical energy from pre-drug control, θ band: -31 ± 11 instrument counts
[1]; 0.25 mg/kg free base s.c.
  group percent change in electrical energy from pre-drug control, Δ band: -14%
  mean change ± S.E. in electrical energy from pre-drug control, Δ band: -31 ± 18 instrument counts
  group percent change in electrical energy from pre-drug control, α band: -31%
  mean change ± S.E. in electrical energy from pre-drug control, α band: -39 ± 12 instrument counts
  group percent change in electrical energy from pre-drug control, β band: -9%
  mean change ± S.E. in electrical energy from pre-drug control, β band: -11 ± 4 instrument counts
  group percent change in electrical energy from pre-drug control, γ band: +9%
  mean change ± S.E. in electrical energy from pre-drug control, γ band: +7 ± 2 instrument counts
  group percent change in electrical energy from pre-drug control, θ band: -27%
  mean change ± S.E. in electrical energy from pre-drug control, θ band: -38 ± 16 instrument counts
[1]; 1.0 mg/kg free base s.c.
  group percent change in electrical energy from pre-drug control, Δ band: -2%
  mean change ± S.E. in electrical energy from pre-drug control, Δ band: -4 ± 30 instrument counts
  group percent change in electrical energy from pre-drug control, α band: -46%
  mean change ± S.E. in electrical energy from pre-drug control, α band: -52 ± 14 instrument counts
  group percent change in electrical energy from pre-drug control, β band: -19%
  mean change ± S.E. in electrical energy from pre-drug control, β band: -20 ± 5 instrument counts
  group percent change in electrical energy from pre-drug control, γ band: +13%
  mean change ± S.E. in electrical energy from pre-drug control, γ band: +10 ± 3 instrument counts
  group percent change in electrical energy from pre-drug control, θ band: -34%
  mean change ± S.E. in electrical energy from pre-drug control, θ band: -45 ± 17 instrument counts
[1]; 4.0 mg/kg free base s.c.
  group percent change in electrical energy from pre-drug control, Δ band: -8%
  mean change ± S.E. in electrical energy from pre-drug control, Δ band: -16 ± 45 instrument counts
  group percent change in electrical energy from pre-drug control, α band: -51%
  mean change ± S.E. in electrical energy from pre-drug control, α band: -63 ± 11 instrument counts
  group percent change in electrical energy from pre-drug control, β band: -12%
  mean change ± S.E. in electrical energy from pre-drug control, β band: -14 ± 4 instrument counts
  group percent change in electrical energy from pre-drug control, γ band: +35%
  mean change ± S.E. in electrical energy from pre-drug control, γ band: +25 ± 5 instrument counts
  group percent change in electrical energy from pre-drug control, θ band: -41%
  mean change ± S.E. in electrical energy from pre-drug control, θ band: -56 ± 14 instrument counts
